pIC50, pKi: −log10 of the molar value.
Molecular target: T1, human V1a receptor (Homo sapiens, UniProt P37288)
T1 construct: host or cells: CHO cells
Assay: Human vasopressin V1a receptor binding assay
Conditions: hV1a CHO cell line, competition with 1 nM 3H-AVP; for pIC50: read-out: V1a Binding Affinity IC50; for pKi: read-out: V1a Ki
Procedure: EXAMPLE. Human vasopressin V1a receptor binding assay. A cell line expressing the human V1a receptor in CHO cells (henceforth referred to as the hV1a cell line) was obtained from Dr. Michael Brownstein, NIMH, Bethesda, Md., USA. The hV1a cDNA sequence is described by Thibonnier et al., Journal of Biological Chemistry, 269, 3304-3310 (1994), and the expression method was the same as described by Morel et al. (1992). The hV1a cell line was grown in alpha-MEM with 10% fetal bovine serum and 250 ug/ml G418 (Gibco, Grand Island, N.Y., USA). For competitive binding assay, hV1a cells were plated into 6-well culture plate at 1:10 dilution from a confluency flask, and maintained in culture for at least two days. Culture medium was then removed, cells were washed with 2 ml binding buffer (25 mM Hepes, 0.25% BSA, 1×DMEM, PH=7.0). To each well, 990 μl binding buffer containing 1 nM 3H-AVP was added, and followed by 10 μl series diluted Example compounds dissolved in DMSO. […] 100 nM cold AVP (Sigma) was used to assess non-specific binding. Cells were incubated for 45 minutes at 37° C., assay mixture was removed and each well was washed three times with PBS (pH=7.4). 1 ml 2% SDS was added per well and plates were let sit for 30 minutes. The whole content in a well was transferred to a scintillation vial. Each well was rinsed with 0.5 ml PBS which was then added to the corresponding vial. Scintillation fluid (Ecoscint, National Diagnostics, Atlanta, Ga.) was then added at 3 ml per vial. Samples were counted in a liquid scintillation counter (Beckman LS3801). IC50 values were calculated by Prism Curve fitting software.
All of the alkanedioic esters and amides exemplified in the foregoing examples dissolved in DMSO were tested in this assay. Binding curves were generated according to methods described by Thibonnier et al. (1994). [^3H]-AVP was added to the hV1a cell cultures followed by 10-fold dilutions of each test compound.

T1 sequence (P37288 whole entry): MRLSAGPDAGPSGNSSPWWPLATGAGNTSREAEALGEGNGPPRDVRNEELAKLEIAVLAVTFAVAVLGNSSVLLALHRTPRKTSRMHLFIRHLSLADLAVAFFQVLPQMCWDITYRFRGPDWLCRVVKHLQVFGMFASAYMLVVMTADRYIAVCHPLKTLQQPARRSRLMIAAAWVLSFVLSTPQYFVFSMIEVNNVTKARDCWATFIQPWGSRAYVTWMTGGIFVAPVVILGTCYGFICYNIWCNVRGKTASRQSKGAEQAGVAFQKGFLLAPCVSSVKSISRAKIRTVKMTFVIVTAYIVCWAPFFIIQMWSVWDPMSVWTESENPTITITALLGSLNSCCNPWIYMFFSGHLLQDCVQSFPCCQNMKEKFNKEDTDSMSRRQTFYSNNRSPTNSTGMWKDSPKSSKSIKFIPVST

Row | pIC50 | pKi | SMILES
1 | ~7.30 |  | O=C(NCc1cccc(C(F)(F)F)c1)C(CC(=O)N1CCN(N2CCCC2)CC1)N1C(=O)C(N2C(=O)OCC2c2ccccc2)C1C=Cc1ccccc1 (centres unmarked) [Example 47]
2 | 7.30 |  | O=C(NCc1cccc(C(F)(F)F)c1)[C@H](CC(=O)N1CCN(C2CCCCC2)CC1)N1C(=O)[C@@H](N2C(=O)OC[C@@H]2c2ccccc2)[C@H]1/C=C/c1ccccc1 [Example 66]
3 | 7.82 |  | O=C(CCC(C(=O)NCc1cccc(C(F)(F)F)c1)N1C(=O)C(N2C(=O)OCC2c2ccccc2)C1C=Cc1ccccc1)NCCN1CCCCC1 (centres unmarked) [Example 87]
4 | 8.49 | 8.70 | O=C(NCc1cccc(C(F)(F)F)c1)[C@H](CCC(=O)N1CCN(N2CCCC2)CC1)N1C(=O)[C@@H](N2C(=O)OC[C@@H]2c2ccccc2)[C@H]1/C=C/c1ccccc1 [Example 91]
5 | 8.56 | 8.77 | O=C(NCc1cccc(C(F)(F)F)c1)C(CCC(=O)N1CCN(C2CCCCC2)CC1)N1C(=O)C(N2C(=O)OCC2c2ccccc2)C1C=Cc1ccccc1 (centres unmarked) [Example 120H]
6 | 7.35 | 7.56 | O=C(NCc1cccc(C(F)(F)F)c1)C(CC(=O)N1CCN(N2CCCC2)CC1)N1C(=O)C(N2C(=O)OCC2c2ccccc2)C1C=Cc1ccccc1 (centres unmarked) [Example 134B]
7 | 8.35 | 8.56 | O=C(NCc1cccc(OC(F)(F)F)c1)C(CCC(=O)N1CCN(C2CCCCC2)CC1)N1C(=O)C(N2C(=O)OCC2c2ccccc2)C1C=Cc1ccccc1 (centres unmarked) [Example 172]
8 | 8.84 | 9.05 | O=C(NCc1cc(Cl)cc(Cl)c1)C(CCC(=O)N1CCN(C2CCCCC2)CC1)N1C(=O)C(N2C(=O)OCC2c2ccccc2)C1C=Cc1ccccc1 (centres unmarked) [Example 174]
9 | 8.34 | 8.55 | O=C(NCc1cc(Cl)ccc1Cl)C(CCC(=O)N1CCN(C2CCCCC2)CC1)N1C(=O)C(N2C(=O)OCC2c2ccccc2)C1C=Cc1ccccc1 (centres unmarked) [Example 175]
10 | 9.21 | 9.42 | O=C(NCc1cccc(Cl)c1Cl)C(CCC(=O)N1CCN(C2CCCCC2)CC1)N1C(=O)C(N2C(=O)OCC2c2ccccc2)C1C=Cc1ccccc1 (centres unmarked) [Example 176]
11 | 9.17 | 9.39 | O=C(NCc1cc(C(F)(F)F)ccc1F)C(CCC(=O)N1CCN(C2CCCCC2)CC1)N1C(=O)C(N2C(=O)OCC2c2ccccc2)C1C=Cc1ccccc1 (centres unmarked) [Example 177]
12 | 9.09 | 9.29 | O=C(NCc1cc(F)cc(C(F)(F)F)c1)C(CCC(=O)N1CCN(C2CCCCC2)CC1)N1C(=O)C(N2C(=O)OCC2c2ccccc2)C1C=Cc1ccccc1 (centres unmarked) [Example 179]
13 | 9.48 | 9.70 | O=C(NCc1cccc(C(F)(F)F)c1F)C(CCC(=O)N1CCN(C2CCCCC2)CC1)N1C(=O)C(N2C(=O)OCC2c2ccccc2)C1C=Cc1ccccc1 (centres unmarked) [Example 180]
14 | 8.82 | 9.03 | O=C(NCc1ccccc1C(F)(F)F)C(CCC(=O)N1CCN(C2CCCCC2)CC1)N1C(=O)C(N2C(=O)OCC2c2ccccc2)C1C=Cc1ccccc1 (centres unmarked) [Example 182]
15 | 9.00 | 9.18 | O=C(NCc1cccc(Cl)c1)C(CCC(=O)N1CCN(C2CCCCC2)CC1)N1C(=O)C(N2C(=O)OCC2c2ccccc2)C1C=Cc1ccccc1 (centres unmarked) [Example 187]
16 | 8.14 | 8.35 | O=C(NCc1cc(C(F)(F)F)cc(C(F)(F)F)c1)C(CCC(=O)N1CCN(C2CCCCC2)CC1)N1C(=O)C(N2C(=O)OCC2c2ccccc2)C1C=Cc1ccccc1 (centres unmarked) [Example 188]
17 | 8.77 | 8.98 | O=C(NCc1cccc([N+](=O)[O-])c1)C(CCC(=O)N1CCN(C2CCCCC2)CC1)N1C(=O)C(N2C(=O)OCC2c2ccccc2)C1C=Cc1ccccc1 (centres unmarked) [Example 189]
18 | 9.06 | 9.27 | O=C(NCc1cccc(Br)c1)C(CCC(=O)N1CCN(C2CCCCC2)CC1)N1C(=O)C(N2C(=O)OCC2c2ccccc2)C1C=Cc1ccccc1 (centres unmarked) [Example 190]
19 | 8.53 | 8.75 | O=C(NCc1ccccc1)C(CCC(=O)N1CCN(C2CCCCC2)CC1)N1C(=O)C(N2C(=O)OCC2c2ccccc2)C1C=Cc1ccccc1 (centres unmarked) [Example 191]
20 | 8.93 | 9.14 | Cc1cccc(CNC(=O)C(CCC(=O)N2CCN(C3CCCCC3)CC2)N2C(=O)C(N3C(=O)OCC3c3ccccc3)C2C=Cc2ccccc2)c1 (centres unmarked) [Example 193]
21 | ~7.00 |  | CCCCN(Cc1ccccc1)C(=O)[C@H](CCC(=O)N1CCN(C2CCCCC2)CC1)N1C(=O)[C@@H](N2C(=O)OC[C@@H]2c2ccccc2)[C@H]1/C=C/c1ccccc1 [Example 198]

Row | pIC50 | pKi | SMILES
22 | 8.29 | 8.51 | O=C(NCCc1ccccc1)C(CCC(=O)N1CCN(C2CCCCC2)CC1)N1C(=O)C(N2C(=O)OCC2c2ccccc2)C1C=Cc1ccccc1 (centres unmarked) [Example 200]
23 | 7.98 | 8.19 | COc1cc(CNC(=O)C(CCC(=O)N2CCN(C3CCCCC3)CC2)N2C(=O)C(N3C(=O)OCC3c3ccccc3)C2C=Cc2ccccc2)cc(OC)c1 (centres unmarked) [Example 201]
24 | 8.22 | 8.43 | CC(C)(NC(=O)C(CCC(=O)N1CCN(C2CCCCC2)CC1)N1C(=O)C(N2C(=O)OCC2c2ccccc2)C1C=Cc1ccccc1)c1ccccc1 (centres unmarked) [Example 204]
25 | 9.47 | 9.68 | CN(Cc1cccc(C(F)(F)F)c1)C(=O)C(CCC(=O)N1CCN(C2CCCCC2)CC1)N1C(=O)C(N2C(=O)OCC2c2ccccc2)C1C=Cc1ccccc1 (centres unmarked) [Example 205]
26 | 8.80 | 9.01 | CC(NC(=O)C(CCC(=O)N1CCN(C2CCCCC2)CC1)N1C(=O)C(N2C(=O)OCC2c2ccccc2)C1C=Cc1ccccc1)c1ccccc1 (centres unmarked) [Example 206]
27 | 8.35 | 8.56 | O=C(NC1(c2ccccc2)CC1)C(CCC(=O)N1CCN(C2CCCCC2)CC1)N1C(=O)C(N2C(=O)OCC2c2ccccc2)C1C=Cc1ccccc1 (centres unmarked) [Example 207]
28 | 7.79 | 8.00 | O=C(NCc1ccccn1)C(CCC(=O)N1CCN(C2CCCCC2)CC1)N1C(=O)C(N2C(=O)OCC2c2ccccc2)C1C=Cc1ccccc1 (centres unmarked) [Example 208]
29 | 7.80 | 8.01 | O=C(NCc1cccnc1)C(CCC(=O)N1CCN(C2CCCCC2)CC1)N1C(=O)C(N2C(=O)OCC2c2ccccc2)C1C=Cc1ccccc1 (centres unmarked) [Example 209]
30 | 7.53 | 7.74 | O=C(NCc1ccncc1)C(CCC(=O)N1CCN(C2CCCCC2)CC1)N1C(=O)C(N2C(=O)OCC2c2ccccc2)C1C=Cc1ccccc1 (centres unmarked) [Example 210]
31 | 8.27 | 8.48 | O=C(NCc1ccco1)C(CCC(=O)N1CCN(C2CCCCC2)CC1)N1C(=O)C(N2C(=O)OCC2c2ccccc2)C1C=Cc1ccccc1 (centres unmarked) [Example 211]
32 | 9.02 | 9.24 | Cc1ccc(CNC(=O)C(CCC(=O)N2CCN(C3CCCCC3)CC2)N2C(=O)C(N3C(=O)OCC3c3ccccc3)C2C=Cc2ccccc2)o1 (centres unmarked) [Example 212]
33 | 9.11 | 9.32 | O=C(NCc1cccs1)C(CCC(=O)N1CCN(C2CCCCC2)CC1)N1C(=O)C(N2C(=O)OCC2c2ccccc2)C1C=Cc1ccccc1 (centres unmarked) [Example 213]
34 | 8.50 | 8.71 | O=C(NC1(c2ccccc2)CCCC1)C(CCC(=O)N1CCN(C2CCCCC2)CC1)N1C(=O)C(N2C(=O)OCC2c2ccccc2)C1C=Cc1ccccc1 (centres unmarked) [Example 217]
35 | 8.11 | 8.33 | COc1cc(OC)cc(C(C)(C)NC(=O)C(CCC(=O)N2CCN(C3CCCCC3)CC2)N2C(=O)C(N3C(=O)OCC3c3ccccc3)C2C=Cc2ccccc2)c1 (centres unmarked) [Example 218]
36 | 9.20 | 9.41 | COc1ccc(OC)c(CNC(=O)C(CCC(=O)N2CCN(C3CCCCC3)CC2)N2C(=O)C(N3C(=O)OCC3c3ccccc3)C2C=Cc2ccccc2)c1 (centres unmarked) [Example 219]
37 | 8.28 | 8.49 | COc1ccccc1CNC(=O)C(CCC(=O)N1CCN(C2CCCCC2)CC1)N1C(=O)C(N2C(=O)OCC2c2ccccc2)C1C=Cc1ccccc1 (centres unmarked) [Example 220]
38 | ~7.30 |  | O=C(CC[C@@H](C(=O)N[C@@H]1CCCc2ccccc21)N1C(=O)[C@@H](N2C(=O)OC[C@@H]2c2ccccc2)[C@H]1/C=C/c1ccccc1)N[C@@H]1CCN(Cc2ccccc2)C1 [Example 221AD]
39 | ~7.30 |  | CCN1CCCC1CNC(=O)CCC(C(=O)NC1CCCc2ccccc21)N1C(=O)C(N2C(=O)OCC2c2ccccc2)C1C=Cc1ccccc1 (centres unmarked) [Example 221AI]
40 |  | 8.42 | Cc1ccc(C2(NC(=O)C(CCC(=O)N3CCN(C4CCCCC4)CC3)N3C(=O)C(N4C(=O)OCC4c4ccccc4)C3C=Cc3ccccc3)CC2)cc1 (centres unmarked) [Example 221AP]
41 | 8.77 | 8.98 | C[C@@H](NC(=O)[C@H](CCC(=O)N1CCN(C2CCCCC2)CC1)N1C(=O)[C@@H](N2C(=O)OC[C@@H]2c2ccccc2)[C@H]1/C=C/c1ccccc1)c1cccc(C(F)(F)F)c1 [Example 221F]
42 | 8.77 | 8.96 | O=C(NC1Cc2ccccc2C1)C(CCC(=O)N1CCN(C2CCCCC2)CC1)N1C(=O)C(N2C(=O)OCC2c2ccccc2)C1C=Cc1ccccc1 (centres unmarked) [Example 221P]

Reference: US11628160B2, “Compositions and methods for treating brain injury” (Azevan Pharmaceuticals, Inc., priority 2017, dated 2023)
